In patent publication US8846672B2, “Imidazopyridines as respiratory syncytial virus antiviral agents” (Janssen R&D Ireland, priority 2010, dated 2014):
pEC50: −log10 of the molar value.

Columns and labels:
[1] = Toxicity (CC50)
[2] = system: RSV; assay: RSV inhibitory activity (WT activity); assay type: cell-based, respiratory syncytial virus
[3] = human respiratory syncytial virus, Table 1, wild-type RSV
[4] = human respiratory syncytial virus, Table 2, wild-type RSV

| SMILES | pEC50 ([2]; Table 2, wild-type RSV) | pEC50 ([2]; Table 1, wild-type RSV) | also measured |
| --- | --- | --- | --- |
| O=c1n(Cc2nc3cc(Cl)ccn3c2CCCCO)c2cnccc2n1C1CC1 [Compound P1, 3-((7-chloro-3-(4-hydroxybutyl)imidazo[1,2-a]pyridin-2-yl)methyl)-1-cyclopropyl-1H-imidazo[4,5-c]pyridin-2(3H)-one] | – | – | CC50 [1]: > 9840 nM; pEC50 [2, 3]: 9.40 |
| COCCCc1c(Cn2c(=O)n(C3CC3)c3ccncc32)nc2cc(Cl)ccn12 [Compound P2] | – | 8.42 | – |
| O=c1n(Cc2nc3ccccn3c2CCC2CC2)c2cnccc2n1C1CC1 [Compound P3, 1-cyclopropyl-3-((3-(2-cyclopropylethyl)imidazo-[1,2-a]pyridin-2-yl)methyl)-1H-imidazo[4,5-c]pyridin-2(3H)-one] | – | – | CC50 [1]: > 9840 nM; pEC50 [2, 3]: 8.28 |
| O=c1n(Cc2nc3ccccn3c2CCCCO)c2cnccc2n1C1CC1 [Compound P5] | – | 7.66 | – |
| COCC#Cc1c(Cn2c(=O)n(C3CC3)c3ccncc32)nc2cc(Cl)ccn12 [Compound P6] | – | 6.77 | – |
| O=c1n(Cc2nc3cc(CCCCO)ccn3c2CCCCO)c2cnccc2n1C1CC1 [Compound P10] | – | < 5.01 | – |
| CC(C)CC#Cc1c(Cn2c(=O)n(C(C)C)c3ccccc32)nc2ccccn12 [Compound P11] | – | 4.95 | – |
| CC(C)n1c(=O)n(Cc2cn3ccccc3n2)c2ccccc21 [Compound P12] | – | 4.79 | – |
| O=c1n(Cc2cn3ccccc3n2)c2cnccc2n1C1CC1 [Compound P13] | – | 4.29 | – |
| O=c1n(Cc2cn3ccncc3n2)c2cnccc2n1C1CC1 [Compound P14] | – | < 4.01 | – |
| O=c1n(Cc2nc3cnccn3c2CCCCO)c2cnccc2n1C1CC1 [Compound P17, 1-cyclopropyl-3-((3-(4-hydroxybutyl)imidazo[1,2-a]pyrazin-2-yl)methyl)-1H-imidazo[4,5-c]pyridin-2(3H)-one] | – | – | pEC50 [2, 4]: 6.56 |
| O=c1n(Cc2nc3cnccn3c2CCCCF)c2cnccc2n1C1CC1 [Compound P18, 1-cyclopropyl-3-((3-(4-fluorobutyl)imidazo[1,2-a]pyrazin-2-yl)methyl)-1H-imidazo[4,5-c]pyridin-2(3H)-one] | – | – | pEC50 [2, 4]: 6.26 |
| COC(=O)C=Cc1c(Cn2c(=O)n(C3CC3)c3ccncc32)nc2cc(Cl)ccn12 [Compound P20] | 8.53 | – | – |
| N#CC=Cc1c(Cn2c(=O)n(C3CC3)c3ccncc32)nc2cc(Cl)ccn12 [Compound P21] | 7.87 | – | – |
| O=C(CCc1c(Cn2c(=O)n(C3CC3)c3ccncc32)nc2cc(Cl)ccn12)N1CCOCC1 [Compound P26, 3-((7-chloro-3-(3-morpholino-3-oxopropyl)imidazo[1,2-a]pyridin-2-yl)methyl)-1-cyclopropyl-1H-imidazo[4,5-c]pyridin-2(3H)-one] | – | – | pEC50 [2, 4]: 8.66 |
| O=C(CCc1c(Cn2c(=O)n(C3CC3)c3ccncc32)nc2ccccn12)N1CCOCC1 [Compound P27, 1-cyclopropyl-3-((3-(3-morpholino-3-oxopropyl)imidazo[1,2-a]pyridin-2-yl)methyl)-1H-imidazo[4,5-c]pyridin-2(3H)-one] | – | – | pEC50 [2, 4]: 7.25 |

More lines, main results first:

| pEC50 ([2]; Table 2, wild-type RSV) | SMILES | pEC50 ([2]; Table 1, wild-type RSV) | also measured |
| --- | --- | --- | --- |
| 6.50 | CC(C)(C)C=Cc1c(Cn2c(=O)n(C3CC3)c3ccncc32)nc2cnccn12 [Compound P15] | – | – |
| 6.76 | CC(C)(C)CCc1c(Cn2c(=O)n(C3CC3)c3ccncc32)nc2cnccn12 [Compound P16] | – | – |
| 8.58 | CN(C)C(=O)CCc1c(Cn2c(=O)n(C3CC3)c3ccncc32)nc2cc(Cl)ccn12 [Compound P23] | – | – |
| 7.82 | CN(C)C(=O)CCc1c(Cn2c(=O)n(C3CC3)c3ccncc32)nc2ccccn12 [Compound P25] | – | – |
